In patent publication US9061352B2, “Dry powder formulations and methods for treating pulmonary diseases” (priority 2010, dated 2015):

How the values were obtained:
Format in all cases: physicochemical
[1] = Heat of solution in HBSS buffer; settings: for ΔH (kJ/mol), Average / ΔH (kcal/mol), Average / heat of solution ΔH: HBSS buffer; for ΔH (kJ/mol), Average / ΔH (kcal/mol), Average: per mol Ca for all powders except leucine (mol Leu); for ΔH (kJ/mol), Average / ΔH (kcal/mol), Average / Q (cal), Average / ΔT (deg. C.), Average: experiment #1; for Q (cal), Average / ΔT (deg. C.), Average: dissolution in HBSS buffer
[2] = Fine particle fraction by two-stage collapsed Andersen Cascade Impactor (ACI-2); settings: spray dried from 70% ethanol, 50 g/L
[3] = Volume median diameter (x50) and dispersibility ratios by HELOS/RODOS laser diffraction
Protocol: Volume median diameter (×50 or Dv50), which may also be referred to as volume median geometric diameter (VMGD), was determined using a laser diffraction technique. The equipment consisted of a HELOS diffractometer and a RODOS dry powder disperser (Sympatec, Inc., Princeton, N.J.). The RODOS disperser applies a shear force to a sample of particles, controlled by the regulator pressure (typically set at 1.0 bar) of the incoming compressed dry air. The pressure settings may be varied to vary the amount of energy used to disperse the powder. For example, the regulator pressure may be varied from 0.2 bar to 4.0 bar; and the orifice ring pressure may be varied from 5.00 mbar to 115.00 mbar. Powder sample is dispensed from a microspatula into the RODOS funnel. The dispersed particles travel through a laser beam where the resulting diffracted light pattern produced is collected, typically using an R1 lens, by a series of detectors. The ensemble diffraction pattern is then translated into a volume-based particle size distribution using the Fraunhofer diffraction model, on the basis that smaller particles diffract light at larger angles. Using this method geometric standard deviation (GSD) for the volume mean geometric diameter was also determined.

[4] = Emitted geometric particle size from dry powder inhaler by Spraytec (Dv50, GSD, FPF<5 μm); settings: for average Dv50: 9.2 Joules; for Dv50: measured lower energies
Excerpt: (§1) Volume median diameter can also be measured using a method where the powder is emitted from a dry powder inhaler device. The equipment consisted of a Spraytec laser diffraction particle size system (Malvern, Worcestershire, UK), “Spraytec”. Powder formulations were filled into size 3 HPMC capsules (Capsugel V-Caps) by hand with the fill weight measured gravimetrically using an analytical balance (Mettler Tolerdo XS205). A capsule based passive dry powder inhalers (RS-01 Model 7, High resistance Plastiape S.p.A.) was used which had specific resistance of 0.036 kPa^1/2 LPM^−1. Flow rate and inhaled volume were set using a timer controlled solenoid valve with flow control valve (TPK2000, Copley Scientific). Capsules were placed in the dry powder inhaler, punctured and the inhaler sealed to the inlet of the laser diffraction particle sizer. The steady air flow rate through the system was initiated using the TPK2000 and the particle size distribution was measured via the Spraytec at 1 kHz for at least 2 seconds and up to the total inhalation duration. Particle size distribution parameters calculated included the volume median diameter (Dv50) and the geometric standard deviation (GSD) and the fine particle fraction (FPF) of particles less than 5 micrometers in diameter. At the completion of the inhalation duration, the dry powder inhaler was opened, the capsule removed and re-weighed to calculate the mass of powder that had been emitted from the capsule during the inhalation duration (capsule emitted powder mass or CEPM).
The previous description of the use of the Spraytec was for what is described as its “closed bench configuration”. Alternatively, the Spraytec can be used in its “open bench configuration”. In the open bench configuration, capsules were placed in the dry powder inhaler, punctured and the inhaler sealed inside a cylinder. The cylinder was connected to a positive pressure air source with steady air flow through the system again measured with a mass flow meter and its duration controlled with a timer controlled solenoid valve. The exit of the dry powder inhaler was exposed to room pressure and the resulting aerosol jet passed through the laser of the diffraction particle sizer (Spraytec) in its open bench configuration before being captured by a vacuum extractor. The steady air flow rate through the system was initiated using the solenoid valve and the particle size distribution was measured via the Spraytec at 1 kHz for the duration of the single inhalation maneuver with a minimum of 2 seconds, as in the closed bench configuration. When data are reported in the examples as being measured by the Spraytec, they are from the closed bench configuration unless otherwise noted.
The volume median diameter (Dv50) of the powder after it emitted from a dry powder inhaler, which may also be referred to as volume median geometric diameter (VMGD), was determined using a laser diffraction technique via the Spraytec diffractometer (Malvern, Inc., Worcestershire, UK). Powder was filled into size 3 capsules (V-Caps, Capsugel) and placed in a capsule based dry powder inhaler (RS01 Model 7 High resistance, Plastiape, Italy), or DPI, which was connected with an airtight seal to the inhaler adapter of the Spraytec. A steady airflow rate was drawn through the DPI typically at 60 L/min for a set duration, typically of 2 seconds controlled by a timer controlled solenoid (TPK2000, Copley, Scientific, UK). Alternatively, the airflow rate drawn through the DPI was sometimes run at 15 L/min, 20 L/min, or 30 L/min. The outlet aerosol then passed perpendicularly through the laser beam as an internal flow. The resulting geometric particle size distribution of the aerosol was calculated from the software based on the measured scatter pattern on the photodetectors with samples typically taken at 1000 Hz for the duration of the inhalation. The Dv50, GSD, FPF<5.0 μm measured were then averaged over the duration of the inhalation. […]

[5] = Capsule emitted powder mass (CEPM) from dry powder inhaler; settings: for average CEPM, % of capsule fill weight: 9.2 Joules (60 L/min for 2 L), high resistance RS-01
Excerpt: as §1
A measure of the emission properties of the powders was determined by using the information obtained from the Andersen Cascade Impactor tests. The filled capsule weight was recorded at the beginning of the run and the final capsule weight was recorded after the completion of the run. The difference in weight represented the amount of powder emitted from the capsule (CEPM or capsule emitted powder mass). The emitted dose was calculated by dividing the amount of powder emitted from the capsule by the total initial particle mass in the capsule. While the standard CEPM was measured at 60 L/min, it was also measured at 15 L/min, 20 L/min, or 30 L/min.
Powder formulations were filled into size 3 HPMC capsules (Capsugel V-Caps) by hand with the fill weight measured gravimetrically using an analytical balance (Mettler Tolerdo XS205). […] Two capsule based passive dry powder inhalers (RS-01 Model 7, Low resistance Plastiape S.p.A. and RS-01 Model 7, High resistance Plastiape S.p.A.) were used which had specific resistances of 0.020 and 0.036 kPa1/2/LPM which span the typical range of dry powder inhaler resistance. Flow rate and inhaled volume were set using a timer controlled solenoid valve with flow control valve (TPK2000, Copley Scientific). Capsules were placed in the appropriate dry powder inhaler, punctured and the inhaler sealed to the inlet of the laser diffraction particle sizer (Spraytec, Malvern). The steady air flow rate through the system was initiated using the TPK2000 and the particle size distribution was measured via the Spraytec at 1 kHz for the durations at least 2 seconds and up to the total inhalation duration. Particle size distribution parameters calculated included the volume median diameter (Dv50) and the geometric standard deviation (GSD) and the fine particle fraction (FPF) of particles less than 5 micrometers in diameter. At the completion of the inhalation duration, the dry powder inhaler was opened, the capsule removed and re-weighed to calculate the mass of powder that had been emitted from the capsule during the inhalation duration. At each testing condition, 5 replicate capsules were measured and the results of Dv50, FPF and capsule emitted powder mass (CEPM) were averaged. […]

[6] = RS.01.HR, fill 25 mg, 15 LPM, 4 s, 0.29 J
[7] = RS.01.HR, fill 25 mg, 20 LPM, 3 s, 0.51 J
[8] = RS.01.HR, fill 25 mg, 30 LPM, 2 s, 1.15 J
[9] = RS.01.HR, fill 25 mg, 60 LPM, 2 s, 9.18 J
[10] = RS.01.HR, fill 40 mg, 15 LPM, 4 s, 0.29 J
[11] = RS.01.HR, fill 40 mg, 20 LPM, 3 s, 0.51 J
[12] = RS.01.HR, fill 40 mg, 30 LPM, 2 s, 1.15 J
[13] = RS.01.HR, fill 40 mg, 60 LPM, 2 s, 9.18 J
[14] = RS.01.LR, fill 25 mg, 60 LPM, 2 s, 2.85 J
[15] = RS.01.LR, fill 40 mg, 60 LPM, 2 s, 2.85 J
[16] = all measured energies below 9.2 Joules, 25 and 40 mg fill

## O.O.[Ca+2].[Cl-].[Cl-] [CaCl2•2H2O]
[1]
  ΔH (kJ/mol), Average: -50.5 kJ/mol
  ΔH (kcal/mol), Average: -12.1 kcal/mol
  Q (cal), Average: 2.93 cal
  ΔT (deg. C.), Average: 0.024 deg. C.

## CC(C)C[C@H](N)C(=O)O [Leucine]
[1]
  ΔH (kJ/mol), Average: -6 kJ/mol
  ΔH (kcal/mol), Average: -1.5 kcal/mol
  Q (cal), Average: 0.37 cal
  ΔT (deg. C.), Average: 0.003 deg. C.

## [Cl-].[Cl-].[Mg+2] [Pure magnesium chloride, magnesium chloride]
[2]
  fine particle fraction less than 5.6 microns: 19%
[3]; spray dried from 70% ethanol, 50 g/L
  median volume particle size: 4 microns
[3]; spray dried from D.I. water, 20 g/L
  median particle size: 21 microns

## O.O.[Ca+2].[Cl-].[Cl-] [raw calcium chloride dihydrate, calcium chloride dihydrate]
[1]; first experiment
  heat of solution ΔH: -12.1 kcal/mol
[1]; second experiment
  heat of solution ΔH: -8.4 kcal/mol

## albuterol sulfate [Micronized Albuterol]
[4]; 25 mg fill
  average Dv50: 1.8 μm
  Dv50: 3.9 μm
[4]; 40 mg fill
  average Dv50: 1.6 μm
  Dv50: 3.1 μm
[4]; [6]
  Mean Dv(50) (μm): 16.76 μm
  Mean FPF, % <5 μm: 13.00%
[4]; [7]
  Mean Dv(50) (μm): 8.40 μm
  Mean FPF, % <5 μm: 32.10%
[4]; [8]
  Mean Dv(50) (μm): 3.86 μm
  Mean FPF, % <5 μm: 59.44%
[4]; [9]
  Mean Dv(50) (μm): 1.77 μm
  Mean FPF, % <5 μm: 81.65%
[4]; [10]
  Mean Dv(50) (μm): 17.63 μm
  Mean FPF, % <5 μm: 10.73%
[4]; [11]
  Mean Dv(50) (μm): 6.34 μm
  Mean FPF, % <5 μm: 42.24%
[4]; [12]
  Mean Dv(50) (μm): 3.13 μm
  Mean FPF, % <5 μm: 67.18%
[4]; [13]
  Mean Dv(50) (μm): 1.60 μm
  Mean FPF, % <5 μm: 84.30%
[4]; [14]
  Mean Dv(50) (μm): 2.57 μm
  Mean FPF, % <5 μm: 75.01%
[4]; [15]
  Mean Dv(50) (μm): 2.62 μm
  Mean FPF, % <5 μm: 73.98%
[5]; 25 mg fill
  average CEPM, % of capsule fill weight: 93%
[5]; 40 mg fill
  average CEPM, % of capsule fill weight: 84%
[5]; [6]
  Mean CEPM: 3.12 mg
[5]; [7]
  Mean CEPM: 5.00 mg
[5]; [8]
  Mean CEPM: 7.08 mg
[5]; [9]
  Mean CEPM: 23.18 mg
[5]; [10]
  Mean CEPM: 2.43 mg
[5]; [11]
  Mean CEPM: 4.97 mg
[5]; [12]
  Mean CEPM: 8.55 mg
[5]; [13]
  Mean CEPM: 33.40 mg
[5]; [14]
  Mean CEPM: 15.28 mg
[5]; [15]
  Mean CEPM: 18.88 mg
[5]; [16]
  CEPM: below 10 mg
  CEPM, % of capsule fill weight: < 30%
